Data on 3 molecules can be found in US8603518B2, “Hydroxybutyrate and poly-hydroxybutyrate as components of animal feed or feed additives” (Universiteit Gent, priority 2006, dated 2013).

Assay [1] concerns broiler chickens. The experiment in a line: Second broiler chicken growth trial with crystalline PHB, day 8 to day 29. The format is in vivo. As to conditions: Day 8-29; dose 10 mg/kg.
For assay [2], the system named is broiler chickens. The experiment in a line: Growth performance trial with broiler chickens, day 8 to day 22 (Rhodobacter sphaeroides biomass). The format is in vivo, chickens (ROSS PM3). The note with it: dose 10 mg/kg. As to the method: A growth performance trial with broiler chickens was performed from day 8 to day 22. The chickens were housed in wire-floored battery cages. From day-old until day 8, the chickens were fed a pre-experimental diet based on wheat, maize and soybean meal. In the experimental period (day 8 to 22) the chickens received diets based on wheat, rye and soybean meal (composition see Table 1). Groups of birds were weighed on days 8, 15, and 22. The feed consumption for the intermediate periods was determined and body weight gain and feed conversion ratio were calculated.

The subject of assay [3] is Artemia nauplii infected with Vibrio campbellii LMG21363. The experiment in a line: In vivo challenge test of Artemia nauplii with Vibrio campbellii LMG21363 (Example 8). Details: species or system Artemia franciscana. The note with it: 2 days challenge, mean ± standard error. The procedure:
All challenge tests were performed with high quality hatching cysts of Artemia franciscana (EG® Type, batch 6940, INVE Aquaculture, Baasrode, Belgium). Two hundred mg of cysts were hydrated in 18 ml of tap water during 1 h. Sterile cysts and nauplii were obtained via decapsulation, adapted from the protocol described by Marques et al. (2004). […] The decapsulation was stopped after 2 min by adding 14 ml of Na2S2O3 (10 gl^−1). During the reaction, 0.22 μm filtered aeration was provided. The decapsulated cysts were washed with autoclaved artificial seawater containing 35 g l^−1 of Instant Ocean synthetic sea salt (Aquarium Systems Inc., Sarrebourg, France). The cysts were resuspended in a 50 ml tube containing 30 ml of filtered and autoclaved artificial seawater and hatched for 24 h on a rotor (4 min^−1) at 28° C. with constant illumination (approximately 2000 lux). Vibrio campbellii LMG21363 was stored in 40% glycerol at −80° C. Ten μl of this stored culture was inoculated into fresh Marine Broth (Difco Laboratories, Detroit, USA) and incubated overnight at 28° C. under constant agitation (100 min-1). The grown cultures of Vibrio campbellii were washed in autoclaved artificial seawater and the suspensions were diluted to an OD600 of approximately 0.1. 20 μl of the diluted suspensions was inoculated into the Artemia culture water. Aeromonas hydrophila LVS3 was used as feed for the nauplii (Defoirdt et al., 2005). The strain was grown overnight on Marine Agar (Difco Laboratories, Detroit, USA), suspended in sterile artificial seawater, diluted to an OD600 of approximately 1 and autoclaved. 300 μl of the autoclaved suspension was added to the Artemia culture water. […] Challenge tests were performed as described by Defoirdt et al. (2005), with slight modifications. Briefly, after hatching, groups of 20 nauplii were transferred to new sterile 50 ml tubes that contained 20 ml of filtered and autoclaved artificial seawater. The tubes were inoculated with Vibrio campbellii LMG21363 (except for the control, where no pathogen was added) and fed with LVS3. For the experiment with fatty acids, the fatty acids were dissolved in artificial seawater at different concentrations (25, 50 and 100 mM). The pH of the solutions was brought back to 7 and the solutions were filtersterilised over a 0.22 μm filter (Millipore, Bedford, USA). After feeding and the addition of the appropriate chemical and/or bacteria, the falcon tubes were put back on the rotor and kept at 28° C. […] All manipulations were done under a laminar flow hood in order to maintain sterility of the cysts and nauplii. Each treatment was done in triplicate.

Assay [4] has as its system Vibrio campbellii LMG21363. The experiment in a line: Growth of Vibrio campbellii LMG21363 in LB medium (OD600). The format is cell-based. As to conditions: pH 6. The procedure: Vibrio campbellii LMG21363 was grown overnight in LB medium on a shaker at 28° C. Subsequently, the suspension was diluted 1:50 (v/v) in LB medium supplemented with butyrate (Sigma-Aldrich, Bornem, Belgium) or β-hydroxybutyrate (Sigma-Aldrich, Bornem, Belgium). For each compound, three solutions were made with the following concentrations: 25, 50 and 100 mM. LB medium without supplements was used as a control. The pH of all solutions was set at 6, 7 or 8. After inoculation, the suspensions were incubated at 28° C. in a static mode. Growth was monitored by measuring the optical density (OD600) during 20 h. Each treatment was performed in triplicate.

Where [5] appears, read: 25 mM in culture water at start.
[6] abbreviates: 100 mM in culture water at start.

`COC[C@H]1O[C@@H](OC2OC[C@@H]3O[C@]4(O[C@H]3[C@H]2OC(=O)C(C)C)O[C@H](C)[C@@](O)(C(C)=O)[C@@H]2OCO[C@H]24)[C@@H](OC)[C@@H](O)[C@@H]1O[C@@H]1O[C@H](C)[C@H](OC)[C@H](O[C@H]2C[C@@]3(C)OC4(C[C@@H](O)[C@H](O[C@H]5C[C@@H](O)[C@H](OC(=O)c6c(C)c(Cl)c(O)c(Cl)c6OC)[C@@H](C)O5)[C@@H](C)O4)O[C@@H]3[C@@H](C)O2)[C@H]1O` (stereo partly drawn) [Avilamycin]: in the assay with broiler chickens [1], the FCR was determined as 1.756 ± 0.079 g feed/g gain; the “FCR, % of control” value turned out to be 94.5%; the Feed intake was found to be 2402 ± 196 g/bird; the “Feed intake, % of control” value is on record as 101.0%. Besides, in the assay with broiler chickens [1], the Weight gain turned out to be 1367 ± 85 g/bird and the “Weight gain, % of control” value is on record as 106.6%. In the assay with broiler chickens [2] (Day 8-15), this molecule returned a Feed conversion of 1.652 ± 0.090 g feed/g gain, a Feed intake of 552 ± 43 g/bird and a Weight gain of 334 ± 20 g/bird. In the assay on broiler chickens [2] (Day 8-22), the Feed conversion came to 1.778 ± 0.072 g feed/g gain, the “Feed conversion relative to control (control 100.0)” value is on record as 94.9, the Feed intake was 1441 ± 100 g/bird and the “Feed intake relative to control (control 100.0)” value was 101.1. Further, in the assay with broiler chickens [2] (Day 8-22), the Weight gain was 810 ± 39 g/bird and the “Weight gain relative to control (control 100.0)” value was found to be 106.7. Moreover, in the assay with broiler chickens [2] (Day 15-22), the Feed conversion is on record as 1.867 ± 0.078 g feed/g gain, the Feed intake turned out to be 889 ± 67 g/bird and the Weight gain is 476 ± 24 g/bird.
Consider `CCCC(=O)O` [butyrate], for which the values for the Survival in assay [3] (setting [5]) and in assay [3] (setting [6]) were 48 ± 2 % and 50 ± 5 %, respectively.
For the molecule `CC(O)CC(=O)O` (stereo not drawn) [β-hydroxybutyrate, 3-hydroxybutyrate], the Survival is 38 ± 15% in assay [3] (setting [5]) and 40 ± 3 % in assay [3] (setting [6]). Moreover, the “Growth of Vibrio campbellii” value in assay [4] (100 mM) is given as “strongly inhibited”; in assay [4] (lower concentrations), “not completely inhibited”.
